Measured values reported in ChEMBL document CHEMBL4825711, “Necrostatins regulate apoptosis, necroptosis, and inflammation in cisplatin-induced nephrotoxicity in LLC-PK1 cells” (2021).
Active and inactive are the calls of the source. No cut-off for these calls is given here.

How the values were obtained:
[1] = test system: LLC-PK1; assay: Protection against cisplatin-induced nephrotoxicity in pig LLC-PK1 cells assessed as cell viability at 50 uM measured after 24 hrs in presence of cisplatin; type: functional; conditions: Sus scrofa, read-out: Activity
[2] = test system: LLC-PK1; assay: Protection against cisplatin-induced nephrotoxicity in pig LLC-PK1 cells assessed as increase in cell viability measured after 24 hrs in presence of cisplatin; type: functional, cell-based; conditions: Sus scrofa, dose 3.125-50 µM
[3] = test system: LLC-PK1; assay: Protection against cisplatin-induced nephrotoxicity in pig LLC-PK1 cells assessed as inhibition of apoptosis by measuring reduction in green stained cells at 50 uM measured after 24 hrs in presence of cisplatin by Tali image based cytometric analysis; type: functional, cell-based; conditions: Sus scrofa
[4] = test system: LLC-PK1; assay: Protection against cisplatin-induced nephrotoxicity in pig LLC-PK1 cells assessed as inhibition of apoptosis by measuring decrease in cleaved caspase-3 level at 50 uM measured after 24 hrs in presence of cisplatin by western blot analysis; type: functional, cell-based; conditions: Sus scrofa
[5] = test system: LLC-PK1; assay: Inhibition of cisplatin-induced JNK phosphorylation in pig LLC-PK1 cells at 50 uM measured after 24 hrs in presence of cisplatin by western blot analysis; type: cell-based; conditions: Sus scrofa
[6] = test system: LLC-PK1; assay: Inhibition of cisplatin-induced ERK phosphorylation in pig LLC-PK1 cells at 50 uM measured after 24 hrs in presence of cisplatin by western blot analysis; type: cell-based; conditions: Sus scrofa
[7] = test system: LLC-PK1; assay: Inhibition of cisplatin-induced p38 MAPK phosphorylation in pig LLC-PK1 cells at 50 uM measured after 24 hrs in presence of cisplatin by western blot analysis; type: cell-based; conditions: Sus scrofa
[8] = test system: LLC-PK1; assay: Protection against cisplatin-induced nephrotoxicity in pig LLC-PK1 cells assessed as increase in cell viability at 50 to 1000 uM measured after 24 hrs in presence of cisplatin; type: functional, cell-based; conditions: Sus scrofa, dose 50-1000 µM
[9] = test system: LLC-PK1; assay: Protection against cisplatin-induced nephrotoxicity in pig LLC-PK1 cells assessed as cell viability at 1000 uM measured after 24 hrs in presence of cisplatin; type: functional; conditions: Sus scrofa, read-out: Activity
[10] = test system: LLC-PK1; assay: Protection against cisplatin-induced nephrotoxicity in pig LLC-PK1 cells assessed as inhibition of apoptosis by measuring red-stained dead cells at 50 uM measured after 24 hrs in presence of cisplatin by Tali image based cytometric analysis; type: functional, cell-based; conditions: Sus scrofa

Row | Compound | viability at 50 µM [1] [%] | Activity [2] | Activity [3] | Activity [4] | inhibition [5] | inhibition [6] | inhibition [7] | Activity [8] | viability at 1000 µM [9] [%] | Activity [10]
1 | COc1ccc([C@H]2[C@H]3CCc4ccc(OC)cc4C3=NN2C(C)=O)cc1 | 87.5 | Dose-Dependent Effect | Active | Active | Active | Active | Active | – | – | –
2 | CC(=O)N[C@@H](CS)C(=O)O [ACETYLCYSTEINE] | – | – | – | – | – | – | – | Dose-Dependent Effect | 89.4 | –
3 | COc1ccc([C@H]2[C@@H]3CCc4ccc(OC)cc4C3=NN2C(C)=O)cc1 | 84.5 | – | Active | Active | Active | Active | Active | – | – | –
4 | CN1C(=O)C(Cc2c[nH]c3ccccc23)NC1=S (stereo not drawn) [NECROSTATIN] | 90.5 | Dose-Dependent Effect | Active | Active | Active | Active | Active | – | – | inactive
